# Structures can show the parent of a compound that is named as a salt.
# What was measured:
# Type in all cases: biochemical
# FGFR3 = biological target: T1, FGFR3 (Homo sapiens, UniProt P22607); test: 33P isotope-labeled kinase activity test (Reaction Biology Corp), wild-type FGFR3; conditions: for Selectivity FGFR1/3: ratio of IC50 FGFR1 to IC50 FGFR3; for IC50: wild-type kinase, 33P-ATP 30 μM, substrate pEY + Mn, 120 minutes at room temperature
# T1 construct: purchased Invitrogen PV3145
# human FGFR1 = biological target: T2, human FGFR1 (Homo sapiens, UniProt P11362); test: 33P isotope-labeled kinase activity test (Reaction Biology Corp), wild-type FGFR1; conditions: 33P-ATP 5 μM, substrate pEY + Mn, 120 minutes at room temperature
# T2 construct: purchased Invitrogen PV3146
# T2 sequence (P11362 22-822): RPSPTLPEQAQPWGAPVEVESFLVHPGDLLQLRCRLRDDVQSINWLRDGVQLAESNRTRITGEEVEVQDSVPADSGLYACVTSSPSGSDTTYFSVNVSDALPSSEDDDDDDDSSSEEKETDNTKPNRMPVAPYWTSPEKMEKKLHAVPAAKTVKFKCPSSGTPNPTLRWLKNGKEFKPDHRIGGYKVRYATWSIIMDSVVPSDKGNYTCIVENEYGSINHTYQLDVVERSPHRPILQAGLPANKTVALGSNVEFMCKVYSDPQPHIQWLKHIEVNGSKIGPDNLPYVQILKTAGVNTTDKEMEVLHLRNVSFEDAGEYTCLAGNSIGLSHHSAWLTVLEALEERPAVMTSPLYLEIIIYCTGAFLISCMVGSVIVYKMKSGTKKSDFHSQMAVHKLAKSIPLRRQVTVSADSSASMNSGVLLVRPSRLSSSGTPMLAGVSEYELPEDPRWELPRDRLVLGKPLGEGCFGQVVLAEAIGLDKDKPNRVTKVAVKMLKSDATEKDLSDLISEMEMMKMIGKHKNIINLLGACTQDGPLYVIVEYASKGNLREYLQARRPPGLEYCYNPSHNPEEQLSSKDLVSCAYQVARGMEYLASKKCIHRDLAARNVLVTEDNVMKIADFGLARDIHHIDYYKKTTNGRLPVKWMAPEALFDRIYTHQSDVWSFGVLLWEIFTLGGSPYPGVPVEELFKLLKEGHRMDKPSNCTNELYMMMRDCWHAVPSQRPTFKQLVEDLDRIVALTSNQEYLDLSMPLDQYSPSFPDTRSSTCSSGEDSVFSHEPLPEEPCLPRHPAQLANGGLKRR
# Method: (§1) The IC50 value is determined using ^33P isotope-labeled kinase activity test (Reaction Biology Corp) to evaluate the inhibitory ability of the compounds to be tested on human FGFR1 and FGFR4.
# (§2) Buffer conditions: 20 mM 4-(2-hydroxyethyl)-1-piperazineethanesulfonic acid (Hepes) (pH 7.5), 10 mM MgCl2, 1 mM ethylene glycol-bis-(2-aminoethyl ether)tetraacetic acid (EGTA), 0.02% polyoxyethylene lauryl ether (Brij35), 0.02 mg/ml bovine serum albumin (BSA), 0.1 mM sodium vanadate (Na3VO4), 2 mM dithiothreitol (DTT), and 1% DMSO.
# Test steps: At room temperature, the compounds to be tested are dissolved in DMSO to prepare a 10 mM solution for use. The substrate is dissolved in the newly prepared buffer, and the kinase to be tested is added and mixed well. The DMSO solution in which the compounds to be tested are dissolved is added to the above-mentioned homogeneous reaction solution using acoustic technology (Echo 550). […] After incubating for 15 minutes, ^33P-ATP (activity: 0.01 μCi/μl, with corresponding concentration being listed in table 1) is added to start the reaction. The supplier article number, batch number, and the concentration information in the reaction solution of FGFR1, FGFR4 and substrates thereof are listed in table 1. […] The kinase activity data is expressed by comparing the kinase activity of the groups containing the compounds to be tested with that of the blank group (containing only DMSO). The IC50 value is obtained by curve fitting using Prism4 software (GraphPad), and the experimental results are shown in table 2.
# FGFR2 = biological target: T3, FGFR2 (Homo sapiens, UniProt P21802); test: 33P isotope-labeled kinase activity test (Reaction Biology Corp), wild-type FGFR2; conditions: for Selectivity FGFR1/2: ratio of IC50 FGFR1 to IC50 FGFR2; for IC50: wild-type kinase, 33P-ATP 5 μM, substrate pEY + Mn, 120 minutes at room temperature
# T3 construct: purchased Invitrogen PV3368
# T3 sequence (P21802 22-821): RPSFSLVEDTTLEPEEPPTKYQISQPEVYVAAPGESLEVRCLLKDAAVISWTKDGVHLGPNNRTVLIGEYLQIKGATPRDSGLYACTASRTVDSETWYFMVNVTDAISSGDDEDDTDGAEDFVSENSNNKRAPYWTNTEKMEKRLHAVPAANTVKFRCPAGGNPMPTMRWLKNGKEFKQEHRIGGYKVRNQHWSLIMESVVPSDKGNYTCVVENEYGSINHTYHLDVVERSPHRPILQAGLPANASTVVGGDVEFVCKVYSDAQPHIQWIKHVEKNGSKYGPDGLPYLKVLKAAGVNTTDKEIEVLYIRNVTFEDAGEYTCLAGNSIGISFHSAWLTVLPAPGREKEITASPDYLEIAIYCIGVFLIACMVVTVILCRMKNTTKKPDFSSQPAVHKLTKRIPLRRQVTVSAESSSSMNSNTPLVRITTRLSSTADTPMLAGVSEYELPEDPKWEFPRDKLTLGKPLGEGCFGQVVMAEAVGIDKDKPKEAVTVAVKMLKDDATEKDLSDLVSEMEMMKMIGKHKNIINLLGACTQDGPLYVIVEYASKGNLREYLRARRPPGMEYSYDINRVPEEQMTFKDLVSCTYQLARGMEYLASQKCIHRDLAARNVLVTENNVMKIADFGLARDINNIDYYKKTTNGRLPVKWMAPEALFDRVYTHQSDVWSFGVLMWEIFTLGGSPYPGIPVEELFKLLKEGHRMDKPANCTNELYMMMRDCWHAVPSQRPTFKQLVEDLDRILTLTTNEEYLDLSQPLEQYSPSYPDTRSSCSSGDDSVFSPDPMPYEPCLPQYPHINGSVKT
# human FGFR4 = biological target: T4, human FGFR4 (Homo sapiens, UniProt P22455); test: 33P isotope-labeled kinase activity test (Reaction Biology Corp), wild-type FGFR4; conditions: 33P-ATP 2.5 μM, substrate pEY + Mn, 120 minutes at room temperature
# T4 construct: purchased Invitrogen P3054
# T4 sequence (P22455 22-802): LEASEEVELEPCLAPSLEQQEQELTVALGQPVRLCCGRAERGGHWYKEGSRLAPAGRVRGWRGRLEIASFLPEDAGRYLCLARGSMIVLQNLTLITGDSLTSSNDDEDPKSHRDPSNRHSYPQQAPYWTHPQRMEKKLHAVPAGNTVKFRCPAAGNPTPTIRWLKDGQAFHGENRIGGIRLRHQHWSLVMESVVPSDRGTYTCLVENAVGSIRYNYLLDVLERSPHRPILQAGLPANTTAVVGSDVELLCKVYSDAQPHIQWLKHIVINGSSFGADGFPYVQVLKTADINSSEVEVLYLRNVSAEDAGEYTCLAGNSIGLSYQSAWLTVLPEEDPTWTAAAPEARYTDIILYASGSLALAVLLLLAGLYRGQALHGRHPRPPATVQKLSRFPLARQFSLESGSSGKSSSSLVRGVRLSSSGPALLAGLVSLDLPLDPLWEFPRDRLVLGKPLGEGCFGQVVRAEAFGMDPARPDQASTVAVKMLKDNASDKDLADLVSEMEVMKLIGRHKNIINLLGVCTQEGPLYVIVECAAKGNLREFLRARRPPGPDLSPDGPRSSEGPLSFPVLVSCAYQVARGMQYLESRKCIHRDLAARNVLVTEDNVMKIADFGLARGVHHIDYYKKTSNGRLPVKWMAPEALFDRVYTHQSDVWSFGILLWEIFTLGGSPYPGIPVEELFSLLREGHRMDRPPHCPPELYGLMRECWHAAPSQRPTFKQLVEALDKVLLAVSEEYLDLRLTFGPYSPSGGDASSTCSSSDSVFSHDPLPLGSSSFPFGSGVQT
# Method: as §1, §2
# Test steps: At room temperature, the compounds to be tested are dissolved in DMSO to prepare a 10 mM solution for use. The substrate is dissolved in the newly prepared buffer, and the kinase to be tested is added and mixed well. The DMSO solution in which the compounds to be tested are dissolved is added to the above-mentioned homogeneous reaction solution using acoustic technology (Echo 550). […] After incubating for 15 minutes, ^33P-ATP (activity: 0.01 μCi/μl, with corresponding concentration being listed in table 1) is added to start the reaction. The supplier article number, batch number, and the concentration information in the reaction solution of FGFR1, FGFR4 and substrates thereof are listed in table 1. After the reaction is carried out at room temperature for 120 minutes, the reaction solution is spotted on P81 ion exchange filter paper (Whatman #3698-915). After the filter paper is repeatedly washed with 0.75% phosphoric acid solution, the radioactivity of the phosphorylated substrate remaining on the filter paper is measured. The kinase activity data is expressed by comparing the kinase activity of the groups containing the compounds to be tested with that of the blank group (containing only DMSO). The IC50 value is obtained by curve fitting using Prism4 software (GraphPad), and the experimental results are shown in table 2.
# T1 sequence (P22607 23-806): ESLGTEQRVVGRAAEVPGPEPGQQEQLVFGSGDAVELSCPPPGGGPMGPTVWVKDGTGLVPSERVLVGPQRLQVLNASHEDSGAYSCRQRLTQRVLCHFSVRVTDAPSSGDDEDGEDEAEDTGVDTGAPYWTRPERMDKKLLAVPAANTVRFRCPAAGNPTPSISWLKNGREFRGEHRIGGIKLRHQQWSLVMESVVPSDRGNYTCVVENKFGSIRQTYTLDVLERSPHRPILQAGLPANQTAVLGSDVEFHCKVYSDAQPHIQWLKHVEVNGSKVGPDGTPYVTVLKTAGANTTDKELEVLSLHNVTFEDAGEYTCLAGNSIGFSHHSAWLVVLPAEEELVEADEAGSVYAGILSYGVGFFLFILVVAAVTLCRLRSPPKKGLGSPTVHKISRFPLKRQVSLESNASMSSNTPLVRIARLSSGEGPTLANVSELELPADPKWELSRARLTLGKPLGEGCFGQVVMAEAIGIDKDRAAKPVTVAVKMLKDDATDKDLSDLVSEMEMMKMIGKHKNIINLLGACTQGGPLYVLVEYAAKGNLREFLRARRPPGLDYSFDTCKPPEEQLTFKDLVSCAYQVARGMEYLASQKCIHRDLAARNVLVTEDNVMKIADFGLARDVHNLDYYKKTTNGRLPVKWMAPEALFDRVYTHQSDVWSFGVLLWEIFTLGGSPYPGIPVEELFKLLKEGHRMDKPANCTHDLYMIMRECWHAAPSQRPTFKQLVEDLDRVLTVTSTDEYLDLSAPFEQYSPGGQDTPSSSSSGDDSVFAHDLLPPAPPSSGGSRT
SMILES,Selectivity FGFR1/3 (FGFR3),IC50 (FGFR3) [nM],IC50 (human FGFR1) [nM],Selectivity FGFR1/2 (FGFR2),IC50 (FGFR2) [nM],IC50 (human FGFR4) [nM]
COc1cc(OC)c(Cl)c(-c2nc(-c3nc(-c4ccc(C5CCN(C)CC5)nc4)cnc3N)cn(C)c2=O)c1 [Trifluoroacetate salt of 0060],3.26,0.944,3.08,5.78,0.533,–
COc1cc(OC)cc(-c2nc(-c3nc(-c4cccnc4)cnc3N)cn(C)c2=O)c1 [Trifluoroacetate salt of 0018],89.67,8.11,727,48.27,15.1,–
CCNC(=O)c1ccc(-c2cnc(N)c(-c3cn(C)c(=O)c(-c4cc(OC)cc(OC)c4)n3)n2)cn1 [compound 0038],>978.5,10.2,> 10000,>68.4,146,–
COc1cc(OC)cc(-c2nc(-c3nc(-c4cnn(C)c4)cnc3N)cn(C)c2=O)c1 [compound 0017],12.48,6.31,78.7,8.95,8.79,–
COc1cc(OC)cc(-c2nc(-c3nc(-c4cn(C5CCNCC5)nc4C)cnc3N)cn(C)c2=O)c1 [compound 0028],5.12,10.5,54,7.05,7.66,–
COc1cc(OC)c(F)c(-c2nc(-c3nc(-c4cn(C)nc4C)cnc3N)cn(C)c2=O)c1 [Trifluoroacetate salt of 0029],1.52,1.54,2.33,4.14,0.56,–
COc1cc(OC)cc(-c2nc(-c3nc(-c4ccc(C5(C#N)CCC5)nc4)cnc3N)cn(C)c2=O)c1 [compound 0059],–,49.4,> 10000,–,3060,–
COc1cc(OC)cc(-c2nc(-c3nc(-c4ccc(C5CCN(C)CC5)nc4)cnc3N)cn(C)c2=O)c1 [Hydrochloride salt of 0036],7.28,1.81,13.2,5.31,2.48,> 10000
"COc1cc(OC)cc(-c2nc(-c3nc(-c4cn(CC(O)CC(F)(F)F)nc4C)cnc3N)cn(C)c2=O)c1 (single isomer, unassigned) [compound 0062]",8.40,7.33,61.6,5.47,11.2,–
COc1cc(OC)cc(-c2nc(-c3nc(-c4cnc5c(c4)CC(=O)N5C)cnc3N)cn(C)c2=O)c1 [Hydrochloride salt of 0033],19.15,119,2280,7.27,314,–
COc1cc(OC)cc(-c2nc(-c3nc(-c4cncc(C)c4)cnc3N)cn(C)c2=O)c1 [compound 0056],11.76,10.8,126,10.62,11.9,–
COCCN1CCC(n2cc(-c3cnc(N)c(-c4cn(C)c(=O)c(-c5cc(OC)cc(OC)c5)n4)n3)c(C)n2)CC1 [compound 0035],5.81,5.04,29.3,5.02,5.83,–
COc1cc(OC)cc(-c2nc(-c3nc(-c4cn(CCO)nc4C)cnc3N)cn(C)c2=O)c1 [compound 0048],4.65,57.8,269,4.79,56.1,–
"COc1cc(OC)cc(-c2nc(-c3nc(-c4cnn(CC(O)CC(F)(F)F)c4C)cnc3N)cn(C)c2=O)c1 (single isomer, unassigned) [compound 0064]",11.18,16.2,181,7.97,22.7,–
COc1cc(OC)cc(-c2nc(-c3nc(-c4cn(C5CCN(C)CC5)nc4C)cnc3N)cn(C)c2=O)c1 [Trifluoroacetate salt of 0016],5.92,4.93,29.2,6.94,4.21,8640
"COc1cc(OC)cc(-c2nc(-c3nc(-c4cn(CC(O)CC(F)(F)F)nc4C)cnc3N)cn(C)c2=O)c1 (single isomer, unassigned) [compound 0063]",5.78,12.3,70.8,4.39,16.1,–
"COc1cc(OC)cc(-c2nc(-c3nc(-c4cnn(CC(O)CC(F)(F)F)c4C)cnc3N)cn(C)c2=O)c1 (single isomer, unassigned) [compound 0065]",9.01,45.2,407,7.56,53.9,–
COc1cc(OC)cc(-c2nc(-c3nc(-c4cnn(CC5(C#N)CC5)c4C)cnc3N)cn(C)c2=O)c1 [compound 0051],7.12,4.11,29.3,4.48,6.54,–
COc1cc(OC)cc(-c2nc(-c3nc(-c4cnn(CCO)c4C)cnc3N)cn(C)c2=O)c1 [compound 0049],5.85,34.3,201,3.07,65.5,–
COc1cc(OC)cc(-c2nc(-c3nc(-c4cnn(C5CCN(C)CC5)c4C)cnc3N)cn(C)c2=O)c1 [Trifluoroacetate salt of 0031],6.57,27.8,183,4.15,44,–
COc1cc(OC)cc(-c2nc(-c3nc(-c4cn(C)nc4C)cnc3N)cn(C)c2=O)c1 [Hydrochloride salt of 0023],5.52,29.8,164,5.11,32.1,–
COc1cc(OC)cc(-c2nc(-c3nc(-c4cn(CC5(C#N)CC5)nc4C)cnc3N)cn(C)c2=O)c1 [compound 0043],6.63,7.99,53,4.17,12.7,–

# Source: patent US11286248B2, “Pyrazine-2(1H)-ketone compound acting as FGFR inhibitor” (ZHANGZHOU PIEN TZE HUANG PHARMACEUTICAL CO., LTD., priority 2018, dated 2022)
